US20250222003A1, “PHARMACEUTICAL COMPOSITION FOR TREATING SOLID TUMORS” (Eisai R&D Management Co., Ltd., priority 2021, published 2025)

Tested on: patients with a solid tumor
Assay: Suppression of nausea or vomiting associated with administration of Compound A by antiemetics
Format: in vivo, human
Conditions: for number of subjects showing improvement of vomiting by the antiemetic: of 20 subjects complaining of vomiting during Cycle 1, prochlorperazine or metoclopramide; for number of subjects that did not show improvement of vomiting after the antiemetic / number of subjects in which vomiting could be suppressed / number of subjects showing improvement after switch from non-5-HT3 antiemetic to the 5-HT3 receptor antagonist: of 20 subjects; for number of subjects that did not show improvement of vomiting after the antiemetic: domperidone, metoclopramide or prochlorperazine; for number of subjects in which vomiting could not be suppressed: Compound A 160 mg BID; for number of subjects in which vomiting could not be suppressed / number of subjects in which vomiting could be suppressed / number of subjects showing improvement after switch from non-5-HT3 antiemetic to the 5-HT3 receptor antagonist: ramosetron or granisetron
From the text: For subjects of administration that had the gastrointestinal symptoms, nausea or vomiting, the results of administration of various antiemetics were investigated to determine whether they could suppress the occurrence of nausea or vomiting. The antiemetics used were domperidone ([…], Nauzelin tablet), metoclopramide (peripheral D2 receptor antagonist, metoclopramide tablet), ramosetron hydrochloride (5-HT3 receptor antagonist, Nasea tablet), granisetron (5-HT3 receptor antagonist (Kytril tablet), and the like.
The antiemetics were timely administered to 20 subjects of administration that complained of vomiting during Cycle 1.
FIGS. 1 and 2 are graphs showing the relationship between Cmax(Cmax,ss) or AUC (AUC(0-tau),ss) and the vomiting flag for each test subject at the time of CID8. For example, the vomiting flag 3 means a case in which treatment with an antiemetic other than the 5-HT3 receptor antagonist was first attempted but vomiting could not be suppressed, and vomiting could be suppressed when the antiemetic was switched to the 5-HT3 receptor antagonist.
Five additional patients were investigated whether the occurrence of nausea or vomiting, which is an adverse event having a causal relationship with Compound A, could be suppressed. Ramosetron hydrochloride or granisetron hydrochloride (5-HT3 receptor antagonist) was administered to four patients of administration that complained of vomiting during Cycle 1. Of the four patients that complained of vomiting, three patients received granisetron hydrochloride to prevent the gastrointestinal symptoms (nausea, vomiting) associated with administration of Compound A.

SMILES | number of subjects showing improvement of vomiting by the antiemetic | number of subjects that did not show improvement of vomiting after the antiemetic | number of subjects in which vomiting could not be suppressed | number of subjects in which vomiting could be suppressed | number of subjects showing improvement after switch from non-5-HT3 antiemetic to the 5-HT3 receptor antagonist | number of test subjects in which vomiting could be suppressed when given after symptoms of nausea or vomiting (additional patients, Compound A 120 mg BID) | vomiting after prophylactic administration (additional patients, Compound A 120 mg BID, three patients) | number of subjects in which vomiting could be prevented when given at onset of nausea (of the twelve subjects)
CCN(CC)CCNC(=O)c1cc(Cl)c(N)cc1OC [metoclopramide] | Two | four | – | – | – | – | – | –
O=c1[nH]c2ccccc2n1CCCN1CCC(n2c(=O)[nH]c3cc(Cl)ccc32)CC1 [domperidone] | – | four | – | – | – | – | – | –
Cl.Cn1cc(C(=O)[C@@H]2CCc3[nH]cnc3C2)c2ccccc21 [ramosetron, (−)-(R)-5-[(1-methyl-1H-indol-3-yl)carbonyl]-4,5,6,7-tetrahydro-1H-benzimidazole monohydrochloride] | – | – | two | twelve | four | – | – | –
CN1CCN(CCCN2c3ccccc3Sc3ccc(Cl)cc32)CC1 [prochlorperazine] | Two | four | – | – | – | – | – | –
CN1[C@@H]2CCC[C@H]1C[C@@H](NC(=O)c1nn(C)c3ccccc13)C2.Cl [granisetron, 1-methyl-N-(endo-9-methyl-9-azabicyclo[3.3.1]non-3-yl)-1H-indazole-3-carboxamide hydrochloride] | – | – | two | twelve | four | one | no vomiting occurred afterwards | two
